Assay results published in paper PMC7915858, “Complementary Effects of Carbamylated and Citrullinated LL37 in Autoimmunity and Inflammation in Systemic Lupus Erythematosus” (International Journal of Molecular Sciences, 2021).

What was measured:
[1] = tested on: native LL37-P1-specific T-cells (HLA-DRB1*1501 tetramer); experiment: Peptide-MHC-tetramer staining of T-cells after PBMC stimulation; assay type: cell-based, human
Protocol: Peptide-MHC-tetramers were from ImmunAware (Denmark). Staining was performed for 40 min with 1microL of tetramer suspension at 37 °C, followed by staining for CD4 (4 °C, 20 min), without washing. After incubation with anti-CD4 antibody, cells were washed, resuspended in PBS and kept at 4 °C. Before flow cytometry-acquisition, cells were labeled with PercP-conjugated 7-AAD to exclude dead cells. The peptide-MHC-tetramers used in this study are: the HLA-DR15-P1: tetramer of HLA-DRB1*1501 LLGDFFRKSKEKIGK (corresponding to the first aa at the NH2-term of the mature native LL37), (PE-conjugated) and the control peptide-MHC-tetramer called DR15-ctr: tetramer of HLA-DRB1*1501 […]1-169-185 (PE-conjugated). The other couple of peptide-MHC-tetramers used were HLA-DRB5*0101 loaded with the same LL37 epitope as above and the control tetramer HLA-DRB5*0101 loaded with the control epitope PVSKMRMATPLLMQA (CLIP-derived).

[2] = tested on: native LL37-P1-specific T-cells (HLA-DRB1*1501 tetramer); settings: SLE PBMC culture, tetramers of HLA-DR1, HLA-DR15 or HLA-DRB5; cited from earlier work
Excerpt: We have performed here similar experiments in SLE patients expressing the HLA-DR15 (HLA-DRB1*1501) and/or the DR16 alleles. Since both HLA-DR15- and HLA-DR16-positive individuals co-express DRB5 [[2 ...

[3] = 7 days carb-LL37 stimulation, control tetramer, tetramer/CXCR5 plots
[4] = 7 days carb-LL37 stimulation, tetramer loaded with native LL37 epitope P1, tetramer/CXCR5 plots

Row | Substance | Percent printed first in Figure S7b plot (gate not recoverable from text) [1, 3] | Percent printed second in Figure S7b plot (gate not recoverable from text) [1, 3] | Percent printed third in Figure S7b plot (gate not recoverable from text) [1, 3] | Percent printed second in Figure S7a plot (gate not recoverable from text) [1, 4] | Percent printed third in Figure S7a plot (gate not recoverable from text) [1, 4] | CXCR5 expression on LL37-specific (tetramer-positive) T-cells ([1]; SLE PBMC stimulated, Figure 5d) | Expansion of T-cells specific for the native LL37 epitope ([1]; SLE PBMC, tetramer staining, versus control tetramer) | Expansion of T-cells specific for both cit-LL37 and native LL37 epitopes [2]
1 | L*LGDFFRK*SK*EK*IGKEFK*RIVQRIK*DFLRNLVPRTES [carb-LL37] | 0.0% | 0.19% | 0.01% | 2.00% | 2.20% | variable but significant expression of the TFH marker CXCR5 | expansion of T-cells specific for the native LL37 epitope | 
2 | LLGDFFR(cit)KSKEKIGKEFKR(cit)IVQR(cit)IKDFLR(cit)NLVPR(cit)TES [cit-LL37, LL37 citrullinated at all five arginine sites] |  |  |  |  |  |  |  | able to expand T-cells specific for both the cit-LL37 and the native LL37 epitopes
